{"source": "ChEMBL document CHEMBL1150433", "about": "“Synthesis and activity of conformationally-constrained macrocyclic norstatine-based inhibitors of HIV protease” (Bioorg Med Chem Lett, 1996)", "key": {"[1]": {"molecular_target": "Human immunodeficiency virus type 1 protease (Human immunodeficiency virus 1, UniProt Q72874)", "assay": "Compound was evaluated for the inhibition of HIV protease"}, "[2]": {"system": "MT2", "assay": "Antiviral activity against […] RF infected MT-2 cells", "type": "functional, cell-based", "conditions": "Homo sapiens"}}, "data": [{"smiles": "CC(C)(C)NC(=O)[C@@H]1CCCN1C(=O)[C@H](O)[C@@H]1Cc2ccc(cc2)OCCCOc2cc3ccccc3cc2C(=O)N[C@@H](CC(N)=O)C(=O)N1", "values": [{"measurement": "IC50", "setting": "[1]", "value": 3800, "unit": "nM"}]}, {"smiles": "CC(C)(C)NC(=O)[C@@H]1CCCN1C(=O)[C@@H](O)[C@@H]1Cc2ccc(cc2)OCCCOc2cc3ccccc3cc2C(=O)N[C@@H](CC(N)=O)C(=O)N1", "values": [{"measurement": "IC50", "setting": "[1]", "value": 19, "unit": "nM"}, {"measurement": "EC50", "setting": "[2]", "value": 76, "unit": "nM"}]}, {"smiles": "CC(C)(C)OC(=O)[C@@H]1CCCN1C[C@@H](O)[C@H](Cc1ccccc1)NC(=O)[C@H](CC(N)=O)NC(=O)c1ccc2ccccc2n1", "values": [{"measurement": "IC50", "setting": "[1]", "value": 23, "unit": "nM"}]}]}
